Assay [1] deals with adult rhesus monkey. Nature of the assay: Spatial Delayed Response Task, spatial working memory. Format: in vivo, rhesus macaque.
Assay [2] concerns adult rhesus monkey. The assay is described as above. Format: in vivo, rhesus macaque. The following applies: for spatial working memory performance after repeat of the dose: 2.5 mg/kg on Day 1 and repeated on Day 5. The protocol: Experimental Overview: A group of both aged and non-aged animals was tested at a single dose of 2.5 mg/kg and their performance was followed daily for the first six days and on alternate days thereafter. This was to ascertain that we could repeat the effects we observed previously at the lowest possible dose. The effects of repeating this dose on Day 5, at the […] mark, were examined in order to determine whether (i) an immediate diminution in performance could still be seen the next day and (ii) whether the treatment could achieve a relatively consistent and enduring enhancement of performance in the following days. Since this dose was also capable of inducing a short term deficit in performance, the effects of single administrations at lower doses of 0.1 and 1.0 mg/kg were examined.
All animals were rhesus macaques except one stumptail (Macaca arctoides). Details of the animal demographics are given with each set of results. It was desired to have younger animals in each study, however a preponderance of aged animals were studied, and females outnumbered males by 2 or 3 to one. The Spatial Delayed Response Task is established as one of the most reliable, sensitive, and valuable models in which to test spatial working memory in primates. The Spatial Delayed Response Task is implemented rigidly in a completely systematic format that is uniform within and between animals and between studies. The Spatial Delayed Response Task is designed to normalize performance across animals such they all normally perform at ˜70% correct. The Spatial Delayed Response Task directly challenges the same spatial working memory circuitry in human and nonhuman primates, including dorsolateral prefrontal cortex, posterior parietal cortex and MD thalamus. The Spatial Delayed Response Task is sensitive to multiple neuropharmacological manipulations, whether administered locally or systemically, including dopaminergic, nicotinic, glutamatergic, and GABAergic agents. In this task one of several well locations are baited with food in view of the animal and then covered with identical plaques. An opaque shutter is then lowered for one of 5 variable delays, and then raised to allow the animal to make a response to one of the well locations to retrieve the food treat. Each animal is stabilized (65-75% correct ±≤2.5%) prior to commencing any administration by varying the number of wells and the lengths of the delay. Each testing session consists of 20 trials, 4 trials at each of 5 delays (distributed semi-randomly) ranging from 0, 1, 2, 3, and 4 N seconds, where N is incremented from 1 to 10 according to ability. The number of wells ranges for 2 to 7 and thus stability is achieved by gradually varying the number of wells and the N factor. Original baseline is achieved on initial training and is standardized over twenty sessions, thereafter an animal typically undergoes regular testing to ensure a reasonably stable baseline. An absolute minimum of three baseline sessions are required prior to any experimental condition. Animals are not food deprived but instead reward for correct responses with their most preferred treats (such as yoghurt raisins, gummy bears, and almonds) and then fed their normal ration of nutritional biscuits shortly after cognitive testing.
DPTQ was formulated as a suspension in 20% Captisol/PBS at pH8. Great care was taken to protect the compound in sonication and it was injected (at a volume of 0.2 ml/kg) via a 21G hypodermic needle (to avoid blockage) into the gluteus maximus within 2 hours of formulation (kept on ice). Vehicle was refrigerated in sterile injectable vials for up to one month. Animals were fully acclimated to all procedures prior to enrollment into any study. They were assigned on a readiness for study basis and where relevant, assignment was semirandom between vehicle and treatment arms. IM injections were performed in the animals' home cage 1 hour prior to cognitive testing. […]

The structures appear in SMILES notation.

As to `C[C@H]1c2cccc(CC(C)(C)O)c2C[C@H](CO)N1C(=O)Cc1c(Cl)cccc1Cl` [DPTQ, 2-(2,6-dichlorophenyl)-1-((1S,3R)-5-(2-hydroxy-2-methylpropyl)-3-(hydroxymethyl)-1-methyl-3,4-dihydroisoquinolin-2 (1H)-yl) ethan-1-one], the “acute effect on spatial working memory performance” value in the assay with adult rhesus monkey [1] (acute doses of 2.5 to 10 mg/kg IM) is listed as “trend in reducing spatial working memory performance”. Also, the “protection against ketamine induced cognitive deficits” value in the assay on adult rhesus monkey [1] (rhesus monkey, in vivo) is “little effect”. Moreover, in the assay on adult rhesus monkey [2] (0.1 mg/kg), the “diminution in spatial working memory performance” value was “No sign of any diminution in performance”. In addition, the “enhancement of spatial working memory performance” value in the assay with adult rhesus monkey [2] (0.1 mg/kg, 2-week period) was “modest”; in the assay on adult rhesus monkey [2] (1.0 mg/kg, significance on Day 5), “stronger than for the 0.1 mg/kg dose”; in the assay on adult rhesus monkey [2] (2.5 mg/kg IM, starting from Day 4, prolonged) it was roughly 10%. In the assay on adult rhesus monkey [2] (0.1 mg/kg, Day 4), the “spatial working memory performance versus baseline” value is given as “significant improvement over baseline”. Also, the “early deficit in spatial working memory” value in the assay with adult rhesus monkey [2] (1.0 mg/kg) is “not evident”. In addition, the “effect on spatial working memory performance” value in the assay on adult rhesus monkey [2] (2.5 mg/kg IM, Day 1) is “No immediate effect”. Besides, the “impairment of spatial working memory performance” value in the assay with adult rhesus monkey [2] (2.5 mg/kg IM, Day 3) is listed as roughly 10%. Besides, in the assay on adult rhesus monkey [2] (2.5 mg/kg and above), the “duration of sustained positive effect” value is given as no less than 14 days. The “spatial working memory performance after repeat of the dose” value with adult rhesus monkey [2] (Day 6) is “distinctive drop in performance”; in the assay on adult rhesus monkey [2] (after Day 6), “enhancement for the subsequent week”. Moreover, the “difference between aged and non-aged animals” value in the assay with adult rhesus monkey [2] (2.5 mg/kg, combined scores for Days 4, 5, and 6) was “No significant difference”. Moreover, the “spatial working memory performance” value in the assay with adult rhesus monkey [2] (24 to 48 hours post injection) is on record as “substantially impaired”; in the assay on adult rhesus monkey [2] (96 to 120 hours post injection), “considerably enhanced”.

The record behind these values is patent US12642794B2, “Dose regimens for use of LY3154207 in the treatment of dopaminergic CNS disorders” (Eli Lilly and Company, priority 2018, dated 2026).
